For 1 molecule, ABI1 inhibition results are on record in patent US20170027172A1, “USE OF SUBSTITUTE OXO TETRAHYDROQUINOLINE SULFONAMIDES OR SALTS THEREOF FOR RAISING STRESS TOLERANCE OF PLANTS” (BAYER CROPSCIENCE AKTIENGESELLSCHAFT, priority 2014, published 2017).

This assay addresses T1, phosphatase ABI1 via the co-regulator RCAR11/PYR1 (Arabidopsis thaliana, UniProt O49686+P49597).
T1 sequence (O49686 1-191): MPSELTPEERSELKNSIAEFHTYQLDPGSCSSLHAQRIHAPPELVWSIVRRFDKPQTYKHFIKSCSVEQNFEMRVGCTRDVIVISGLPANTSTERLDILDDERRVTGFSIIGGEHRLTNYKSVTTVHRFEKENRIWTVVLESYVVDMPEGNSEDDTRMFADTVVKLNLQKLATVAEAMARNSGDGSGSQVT
T1 sequence (P49597 1-434): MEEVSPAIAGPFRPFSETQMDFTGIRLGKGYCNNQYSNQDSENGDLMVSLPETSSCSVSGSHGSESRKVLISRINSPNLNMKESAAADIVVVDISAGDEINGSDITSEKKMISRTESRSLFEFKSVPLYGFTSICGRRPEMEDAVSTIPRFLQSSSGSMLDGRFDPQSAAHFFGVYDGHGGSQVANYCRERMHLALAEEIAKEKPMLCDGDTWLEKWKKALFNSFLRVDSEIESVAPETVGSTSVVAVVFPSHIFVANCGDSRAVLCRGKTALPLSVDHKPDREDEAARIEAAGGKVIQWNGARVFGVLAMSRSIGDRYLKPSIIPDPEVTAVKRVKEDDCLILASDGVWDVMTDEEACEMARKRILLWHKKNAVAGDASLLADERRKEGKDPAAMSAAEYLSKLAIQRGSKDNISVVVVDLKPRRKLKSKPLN
Nature of the assay: In vitro inhibition of the phosphatase ABI1 via the co-regulator RCAR11/PYR1, MUP dephosphorylation. The class given is biochemical. On the set-up: dose or concentration left out as unconfirmed. As to conditions: in a solution of DMSO and water; fluorescence at 460 nm. In outline: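 Arabidopsis ABI1 (0.15 μg/well) with RCAR11/PYR1 (0.30 μg/well) in Tris-HCl pH 8, NaCl, MnCl2, DTT, Tween20; MUP substrate, 20 min at 35 °C, fluorescence ex 340/em 460 nm. Compounds tested at 5 mM in DMSO/water, optionally pre-treated with porcine liver esterase; inhibition banded ≥90/70/50/30%.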

In the case of `COC(=O)CCN1C(=O)CCc2cc(NS(=O)(=O)Cc3ccc(F)cc3)ccc21` [A51-158], the ABI1 inhibition result is recorded as “+++ (90%>inhibition≧70%)”.
